Test results reported in ChEMBL document CHEMBL2074039 (Biochem Pharmacol, 1993).

How the values were obtained:
[1] = target: T1, ATP-dependent translocase ABCB1 (Homo sapiens, UniProt P08183); assay: TP_TRANSPORTER: inhibition of Azidopine photoaffinity labelling (Azidopine: 0.2 uM, trans-flupenthioxol: 1 uM) in membranes from KB/V20C cells; format: functional, cell membranes, Membrane
[2] = target: T1, ATP-dependent translocase ABCB1; assay: TP_TRANSPORTER: increase in Doxorubicin intracellular accumulation (Doxorubicin: 0-20 uM, trans-flupenthixol: 5 uM) in MCF-7/ADR cells; format: functional, cell-based; details: nci/adr-res

T1 sequence (P08183 whole entry): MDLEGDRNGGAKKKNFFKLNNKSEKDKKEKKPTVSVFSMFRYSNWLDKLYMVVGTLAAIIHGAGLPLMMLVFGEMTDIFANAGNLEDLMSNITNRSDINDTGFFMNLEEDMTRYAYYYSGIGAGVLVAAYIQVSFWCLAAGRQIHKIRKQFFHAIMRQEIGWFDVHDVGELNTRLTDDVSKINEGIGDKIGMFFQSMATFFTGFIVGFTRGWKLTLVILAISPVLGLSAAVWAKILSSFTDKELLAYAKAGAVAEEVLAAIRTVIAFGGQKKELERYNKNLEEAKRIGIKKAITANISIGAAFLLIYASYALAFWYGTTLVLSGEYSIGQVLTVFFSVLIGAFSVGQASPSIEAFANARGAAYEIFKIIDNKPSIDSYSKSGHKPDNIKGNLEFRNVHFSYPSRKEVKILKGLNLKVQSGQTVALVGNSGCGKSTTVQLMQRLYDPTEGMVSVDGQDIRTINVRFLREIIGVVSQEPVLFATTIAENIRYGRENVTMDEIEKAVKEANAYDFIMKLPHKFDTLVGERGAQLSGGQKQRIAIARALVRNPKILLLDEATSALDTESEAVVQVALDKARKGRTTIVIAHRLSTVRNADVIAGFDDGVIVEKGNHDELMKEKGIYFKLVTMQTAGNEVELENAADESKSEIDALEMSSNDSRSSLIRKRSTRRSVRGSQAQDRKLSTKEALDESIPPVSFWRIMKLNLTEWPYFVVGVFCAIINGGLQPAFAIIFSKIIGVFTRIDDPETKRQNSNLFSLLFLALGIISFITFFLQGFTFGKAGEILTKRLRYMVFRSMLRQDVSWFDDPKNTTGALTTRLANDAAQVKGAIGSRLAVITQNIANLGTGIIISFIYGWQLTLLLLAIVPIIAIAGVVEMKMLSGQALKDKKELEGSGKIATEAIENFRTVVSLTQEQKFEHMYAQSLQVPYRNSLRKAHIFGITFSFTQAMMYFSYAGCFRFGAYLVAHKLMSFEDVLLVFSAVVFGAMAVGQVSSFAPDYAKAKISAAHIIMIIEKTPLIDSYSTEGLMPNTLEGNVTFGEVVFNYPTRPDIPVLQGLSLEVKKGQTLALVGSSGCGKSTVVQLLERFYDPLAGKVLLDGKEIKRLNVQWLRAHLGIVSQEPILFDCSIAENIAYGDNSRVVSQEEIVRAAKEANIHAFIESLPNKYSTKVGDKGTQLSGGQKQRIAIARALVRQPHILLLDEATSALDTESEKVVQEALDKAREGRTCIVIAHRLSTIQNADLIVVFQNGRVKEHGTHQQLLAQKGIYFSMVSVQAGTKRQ

- Activity [1]: inhibitor [+]
- Activity [2]: inhibitor [2 to 3-fold]
SMILES: OCCN1CCN(CC/C=C2\c3ccccc3Sc3ccc(C(F)(F)F)cc32)CC1 [E-FLUPENTIXOL]
